From PMC10945555, “Improving Activity of New Arylurea Agents against Multidrug-Resistant and Biofilm-Producing Staphylococcus epidermidis” (ACS Medicinal Chemistry Letters, 2024)
≈ marks a conversion by molar mass, not a printed value.

Test system: clinical Staphylococcus epidermidis strains
Assay: Minimal bactericidal concentration (MBC), MBC/MIC
Type: cell-based
Protocol: 2.5 Evaluation of bacteriostatic/bactericidal properties […]
determining MBC (Minimal Bactericidal Concentration) values. The study was conducted in accordance with the guidelines of the Clinical and Laboratory Standards Institute (CLSI).13 The MBC value was assumed to be the concentration of the compound inhibiting the growth of strains in 99.9%. Then, the value of the MBC/MIC ratio was calculated to assess its bactericidal or bacteriostatic activity. […]

## O=C(Nc1cccc(Cl)c1)NC1CCN(CCC(Oc2ccc(C(F)(F)F)cc2)c2cccs2)CC1 (centres unmarked) [Compound 25]
Staphylococcus epidermidis, read-out: Mean MBC
  MBC: 29.2 µg/mL (≈ 54.2 µM)
Clinical S. epidermidis strains
  MBC/MIC ratio: 16
Clinical strain 1 (Table S5)
  MBC/MIC: 16
Clinical strain 2 (Table S5)
  MBC/MIC: 16
Clinical strain 3 (Table S5)
  MBC/MIC: 16
Clinical strain 4 (Table S5)
  MBC/MIC: 16
Clinical strain 5 (Table S5)
  MBC/MIC: 16
Clinical strain 6 (Table S5)
  MBC/MIC: 16
Clinical strain 7 (Table S5)
  MBC/MIC: 16
Clinical strain 8 (Table S5)
  MBC/MIC: 16
Clinical strain 9 (Table S5)
  MBC/MIC: 16
Clinical strain 10 (Table S5)
  MBC/MIC: 16
Clinical strain 11 (Table S5)
  MBC/MIC: 16
Clinical strain 12 (Table S5)
  MBC/MIC: 16
Clinical strain 13 (Table S5)
  MBC/MIC: 16
Clinical strain 14 (Table S5)
  MBC/MIC: 16
Clinical strain 15 (Table S5)
  MBC/MIC: 16
Clinical strain 16 (Table S5)
  MBC/MIC: 16
Clinical strain 17 (Table S5)
  MBC/MIC: 16
Clinical strain 18 (Table S5)
  MBC/MIC: 16
Clinical strain 19 (Table S5)
  MBC/MIC: 16
Clinical strain 20 (Table S5)
  MBC/MIC: 16
Clinical strain 21 (Table S5)
  MBC/MIC: 16
Clinical strain 22 (Table S5)
  MBC/MIC: 16
Clinical strain 23 (Table S5)
  MBC/MIC: 16
Clinical strain 24 (Table S5)
  MBC/MIC: 16
Clinical strain 25 (Table S5)
  MBC/MIC: 16
Clinical strain 26 (Table S5)
  MBC/MIC: 16
Clinical strain 27 (Table S5)
  MBC/MIC: 16
Clinical strain 28 (Table S5)
  MBC/MIC: 16
Clinical strain 29 (Table S5)
  MBC/MIC: 16
Clinical strain 30 (Table S5)
  MBC/MIC: 16
Clinical strain 31 (Table S5)
  MBC/MIC: 16
Clinical strain 32 (Table S5)
  MBC/MIC: 16
Clinical strain 33 (Table S5)
  MBC/MIC: 16
Clinical strain 34 (Table S5)
  MBC/MIC: 16
Clinical strain 35 (Table S5)
  MBC/MIC: 16
Clinical strain 36 (Table S5)
  MBC/MIC: 16
Clinical strain 37 (Table S5)
  MBC/MIC: 16
Clinical strain 38 (Table S5)
  MBC/MIC: 16
Clinical strain 39 (Table S5)
  MBC/MIC: 16
Clinical strain 40 (Table S5)
  MBC/MIC: 16
Clinical strain 41 (Table S5)
  MBC/MIC: 16
Clinical strain 42 (Table S5)
  MBC/MIC: 16
Clinical strain 43 (Table S5)
  MBC/MIC: 16
Clinical strain 44 (Table S5)
  MBC/MIC: 16
Clinical strain 45 (Table S5)
  MBC/MIC: 16
Clinical strain 46 (Table S5)
  MBC/MIC: 16
Clinical strain 47 (Table S5)
  MBC/MIC: 16
Clinical strain 48 (Table S5)
  MBC/MIC: 16
Clinical strain 49 (Table S5)
  MBC/MIC: 16
Clinical strain 50 (Table S5)
  MBC/MIC: 16
Clinical strain 51 (Table S5)
  MBC/MIC: 16
Clinical strain 52 (Table S5)
  MBC/MIC: 16
Clinical strain 53 (Table S5)
  MBC/MIC: 16
Clinical strain 54 (Table S5)
  MBC/MIC: 16
Clinical strain 55 (Table S5)
  MBC/MIC: 16
Clinical strain 56 (Table S5)
  MBC/MIC: 16
Clinical strain 57 (Table S5)
  MBC/MIC: 16
Clinical strain 58 (Table S5)
  MBC/MIC: 16
Clinical strain 59 (Table S5)
  MBC/MIC: 16
Clinical strain 60 (Table S5)
  MBC/MIC: 16
Clinical strain 61 (Table S5)
  MBC/MIC: 16
Clinical strain 62 (Table S5)
  MBC/MIC: 16
Clinical strain 63 (Table S5)
  MBC/MIC: 16
Clinical strain 64 (Table S5)
  MBC/MIC: 16
Clinical strain 65 (Table S5)
  MBC/MIC: 16
Clinical strain 66 (Table S5)
  MBC/MIC: 16
Clinical strain 67 (Table S5)
  MBC/MIC: 16
Clinical strain 68 (Table S5)
  MBC/MIC: 16
Clinical strain 69 (Table S5)
  MBC/MIC: 16
Clinical strain 70 (Table S5)
  MBC/MIC: 16
Clinical strain 71 (Table S5)
  MBC/MIC: 16
Clinical strain 72 (Table S5)
  MBC/MIC: 16
Clinical strain 73 (Table S5)
  MBC/MIC: 16
Clinical strain 74 (Table S5)
  MBC/MIC: 16
Clinical strain 75 (Table S5)
  MBC/MIC: 16
Clinical strain 76 (Table S5)
  MBC/MIC: 16
Clinical strain 77 (Table S5)
  MBC/MIC: 16
Clinical strain 78 (Table S5)
  MBC/MIC: 16
Clinical strain 79 (Table S5)
  MBC/MIC: 16
Clinical strain 80 (Table S5)
  MBC/MIC: 16
Clinical strain 81 (Table S5)
  MBC/MIC: 16
